Assay results reported in PubChem BioAssay AID2060623 (Molecular Pharmacology Branch, DTP, NCI, 2025).

Tested on: 227483-062-R1-J1-PDC complex spheroids with HUVEC/MSC, viability
Assay: Anticancer human tumor 227483-062-R1-J1-PDC patient-derived pancreatic carcinoma cell line growth inhibition [CLK]
Settings: for IC50: curve of first compound; for viability, T/C: stronger effect = lower value; active = viability on the fitted dose curve at most 10% of control; inactive = the rest
Description: A high-throughput screen of multi-cell type tumor spheroids was designed to identify active combinations of […] and targeted small molecules. Complex spheroids include a stromal component modeled by human endothelial cells (HUVEC) and fibroblasts modeled by human mesenchymal stem cells (MSCs). The concentration ranges selected for each drug and investigational agent were based upon clinically achievable concentrations if the clinical Cmax of the agent was known.
Compounds. The drugs and investigational agents: cirtuvivint (SM08502; NSC835563), CC-671 (NSC850746), vemurafenib (NSC761431), tapotoclax (NSC804041), sotorasib (NSC818433), adagrasib (NSC831453), MRTX-1133 (NSC836407), BAY2416964 (NSC825713), copanlisib (NSC816437), inavolisib (NSC800729), abemaciclib (NSC768073), osimertinib (NSC779217), entinostat (NSC756642), eltanexor (KPT-8602, NSC794443), venetoclax (NSC766270), ceralasertib (NSC777638), bortezomib (NSC756655), olaparib (NSC753686), talazoparib (NSC767125), alisertib (NSC759677), peposertib (NSC802822), gemcitabine (NSC613327), 5-fluorouracil (NSC19893), SN-38 (NSC673596), oxaliplatin (NSC266046), paclitaxel (NSC125973), and doxorubicin (NSC123127), were obtained from the National Cancer Institute (NCI) Developmental Therapeutics Program Chemical Repository. The FDA-approved anticancer drug set is available from the Developmental Therapeutics Program at https://dtp.cancer.gov/organization/dscb/obtaining/available plates.htm. […] The stock solutions were prepared in dimethyl sulfoxide (DMSO, Sigma-Aldrich, St. Louis, MO, cat. D2650), except for the platinum complexes which were prepared in saline (Quality Biological, Gaithersburg, MD, cat. 114-055-101), at 800-fold the tested concentration and stored at -70 degrees C prior to their use. All drugs and investigational agents were tested over a range starting from a high concentration at or near the clinical Cmax and decreasing in half-log increments. If the clinical Cmax for an agent had not been determined, the highest concentration tested was 10 microM.
Cell Culture. All cells were maintained in an incubator at 37 degrees C and 5% CO2 with 95% humidity. The PDC lines were cultured according to standard operating procedures established by the NCI PDMR. Briefly, all PDCs were thawed and cultured in Matrigel-coated flasks prepared with a working solution of 1X Ham's F-12 nutrient mix, without supplementation (Invitrogen, Waltham, MA, cat. 11765054), 100 U/mL penicillin-streptomycin (Invitrogen, cat. 15140122), and 2.5% Matrigel (Corning Inc., Corning, NY, cat. 354248) for the first three passages. The 947758-054-R-J2-PDC line was cultured in 6B/Colon 1A media, which includes advanced DMEM/F-12 (Thermo Fisher Scientific, cat. 12634028), 10 mM HEPES (Thermo Fisher Scientific, cat. 15630080), 1X GlutaMAX supplement (Thermo Fisher Scientific, cat. 35050061), 0.1 mg/mL primocin (InvivoGen, cat. ant-pm-2), 10% defined fetal bovine serum, heat inactivated (HyClone Laboratories Inc., cat. SH30070.03HI), 1.25 mM N-Acetyl-L-cysteine (Sigma-Aldrich, cat. A9165), 10 mM nicotinamide (Sigma-Aldrich, cat. N0636), 1X B-27 supplement (Thermo Fisher Scientific, cat. 17504044), 1X N-2 supplement (Thermo Fisher Scientific, cat. 17502048), and 10 microM Y-27632 dihydrochloride (Tocris Bioscience, cat. 1254). The 876862-298-R-J1-PDC was cultured in 6E media, which includes all 6B/Colon 1A media components plus 50% L-WRN conditioned media (ATCC, cat. CRL-3276), 50 ng/mL recombinant human EGF recombinant protein (hEGF; Thermo Fisher Scientific, cat. PHG0311), 10 ng/mL recombinant human fibroblast growth factor 10 (hGFG-10; PeproTech, cat. 100-26), 1 ng/mL recombinant human fibroblast growth factor 2 (hFGF-2; PeproTech, cat. 100-18B), and 1 µM prostaglandin E2 (PGE2; Tocris, cat. 2296). The 227483-062-R1-J1-PDC line was cultured in Panc media, containing all 6E components except hFGF-2, with the addition of 500 nM SB-431542 (Selleckchem, cat. S1067) and 10 nM gastrin (Tocris, cat. 3006). […]

[1] = second compound 0.0316 µM, first compound 0.0316 µM
[2] = second compound 0.0316 µM, first compound 0.1 µM
[3] = second compound 0.0316 µM, first compound 0.316 µM
[4] = second compound 0.0316 µM, first compound 1 µM
[5] = second compound 0.0316 µM, first compound 3.16 µM
[6] = second compound 0.0316 µM, first compound 10 µM
[7] = second compound 0.1 µM, first compound 0.0316 µM
[8] = second compound 0.1 µM, first compound 0.1 µM
[9] = second compound 0.1 µM, first compound 0.316 µM
[10] = second compound 0.1 µM, first compound 1 µM
[11] = second compound 0.1 µM, first compound 3.16 µM
[12] = second compound 0.1 µM, first compound 10 µM
[13] = second compound 0.316 µM, first compound 0.0316 µM
[14] = second compound 0.316 µM, first compound 0.1 µM
[15] = second compound 0.316 µM, first compound 0.316 µM
[16] = second compound 0.316 µM, first compound 1 µM
[17] = second compound 0.316 µM, first compound 3.16 µM
[18] = second compound 0.316 µM, first compound 10 µM
[19] = second compound 1 µM, first compound 0.0316 µM
[20] = second compound 1 µM, first compound 0.1 µM
[21] = second compound 1 µM, first compound 0.316 µM
[22] = second compound 1 µM, first compound 1 µM
[23] = second compound 1 µM, first compound 3.16 µM
[24] = second compound 1 µM, first compound 10 µM
[25] = second compound 3.16 µM, first compound 0.0316 µM
[26] = second compound 3.16 µM, first compound 0.1 µM
[27] = second compound 3.16 µM, first compound 0.316 µM
[28] = second compound 3.16 µM, first compound 1 µM
[29] = second compound 3.16 µM, first compound 3.16 µM
[30] = second compound 3.16 µM, first compound 10 µM
[31] = second compound 10 µM, first compound 0.0316 µM
[32] = second compound 10 µM, first compound 0.1 µM
[33] = second compound 10 µM, first compound 0.316 µM
[34] = second compound 10 µM, first compound 1 µM
[35] = second compound 10 µM, first compound 3.16 µM
[36] = second compound 10 µM, first compound 10 µM
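Also: spheroids exposed to compounds for seven days before readout.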
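For viability, T/C in this document: percent of DMSO vehicle control luminescence as 100% viability.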

C#Cc1c(F)ccc2cc(O)cc(-c3ncc4c(N5CC6CCC(C5)N6)nc(OCC56CCCN5CC(F)C6)nc4c3F)c12 (stereo unspecified) + CN1CCN(c2cc(C(=O)Nc3cc4cc(-c5cnn(C)c5)ccc4cn3)ccn2)CC1
inactive: viability, T/C [1] 95.4% | viability, T/C [2] 97% | viability, T/C [3] 128% | viability, T/C [4] 114% | viability, T/C [5] 108% | viability, T/C [6] 69.7% | viability, T/C [7] 66.1% | viability, T/C [8] 70.6% | viability, T/C [9] 67.7% | viability, T/C [10] 81.6% | viability, T/C [11] 68.8% | viability, T/C [12] 52.3%
active: viability, T/C [13] 5.84% | viability, T/C [14] 7.37% | viability, T/C [15] 7.6% | viability, T/C [16] 7.53% | viability, T/C [17] 10% | viability, T/C [18] 6.58% | viability, T/C [19] 3.51% | viability, T/C [20] 2.53% | viability, T/C [21] 1.89% | viability, T/C [22] 3.48% | viability, T/C [23] 1.46% | viability, T/C [24] 1.87% | viability, T/C [25] 4.16% | viability, T/C [26] 4.44% | viability, T/C [27] 3.89% | viability, T/C [28] 3.43% | viability, T/C [29] 3.41% | viability, T/C [30] 2.74% | viability, T/C [31] 4.25% | viability, T/C [32] 2.63% | viability, T/C [33] 2.09% | viability, T/C [34] 4% | viability, T/C [35] 1.52% | viability, T/C [36] 1.15%
> 10 µM: IC50 (second compound 0.0316 µM) | IC50 (second compound 0.1 µM)
< 0.0316 µM: IC50 (second compound 0.316 µM) | IC50 (second compound 1 µM) | IC50 (second compound 3.16 µM) | IC50 (second compound 10 µM)

CC(CO)NC(=O)c1cc(-c2ccc(Cl)cc2)nn(-c2cnn(C)c2)c1=O (stereo unspecified) + CN1CCN(c2cc(C(=O)Nc3cc4cc(-c5cnn(C)c5)ccc4cn3)ccn2)CC1
< 0.0316 µM: IC50 (second compound 0.316 µM) | IC50 (second compound 1 µM) | IC50 (second compound 3.16 µM) | IC50 (second compound 10 µM)
active: viability, T/C [13] 6.17% | viability, T/C [14] 7.14% | viability, T/C [15] 9.66% | viability, T/C [16] 6.91% | viability, T/C [17] 8.13% | viability, T/C [18] 5.79% | viability, T/C [19] 2.97% | viability, T/C [20] 2.61% | viability, T/C [21] 3.05% | viability, T/C [22] 3.03% | viability, T/C [23] 1.78% | viability, T/C [24] 1.92% | viability, T/C [25] 4.36% | viability, T/C [26] 4.28% | viability, T/C [27] 3.59% | viability, T/C [28] 2.83% | viability, T/C [29] 3.7% | viability, T/C [30] 3.41% | viability, T/C [31] 4.97% | viability, T/C [32] 2.72% | viability, T/C [33] 2.16% | viability, T/C [34] 2.15% | viability, T/C [35] 2.52% | viability, T/C [36] 3%
inactive: viability, T/C [1] 88.9% | viability, T/C [2] 89.1% | viability, T/C [3] 98.5% | viability, T/C [4] 94% | viability, T/C [5] 94.7% | viability, T/C [6] 82.4% | viability, T/C [7] 65.2% | viability, T/C [8] 61.3% | viability, T/C [9] 66.4% | viability, T/C [10] 69% | viability, T/C [11] 63.2% | viability, T/C [12] 65.4%
> 10 µM: IC50 (second compound 0.0316 µM) | IC50 (second compound 0.1 µM)

COc1c(OCCCN2CCOCC2)ccc2c3n(c(=NC(=O)c4cnc(N)nc4)nc12)CCN3 + CN1CCN(c2cc(C(=O)Nc3cc4cc(-c5cnn(C)c5)ccc4cn3)ccn2)CC1
< 0.00316 µM: IC50 (second compound 0.316 µM) | IC50 (second compound 1 µM) | IC50 (second compound 3.16 µM) | IC50 (second compound 10 µM)
inactive: viability, T/C (second compound 0.0316 µM, first compound 0.00316 µM) 114% | viability, T/C (second compound 0.0316 µM, first compound 0.01 µM) 96.6% | viability, T/C [1] 74.2% | viability, T/C [2] 60.9% | viability, T/C [3] 43.3% | viability, T/C [4] 27.8% | viability, T/C (second compound 0.1 µM, first compound 0.00316 µM) 60.1% | viability, T/C (second compound 0.1 µM, first compound 0.01 µM) 65% | viability, T/C [7] 41% | viability, T/C [8] 38.8% | viability, T/C [9] 23.2% | viability, T/C [10] 16.7%
0.025 µM: IC50 (second compound 0.1 µM)
active: viability, T/C (second compound 0.316 µM, first compound 0.00316 µM) 6.51% | viability, T/C (second compound 0.316 µM, first compound 0.01 µM) 6.64% | viability, T/C [13] 5.96% | viability, T/C [14] 6.61% | viability, T/C [15] 5.11% | viability, T/C [16] 4.05% | viability, T/C (second compound 1 µM, first compound 0.00316 µM) 3.87% | viability, T/C (second compound 1 µM, first compound 0.01 µM) 1.44% | viability, T/C [19] 1.35% | viability, T/C [20] 1.23% | viability, T/C [21] 1.21% | viability, T/C [22] 1.6% | viability, T/C (second compound 3.16 µM, first compound 0.00316 µM) 2.64% | viability, T/C (second compound 3.16 µM, first compound 0.01 µM) 2.53% | viability, T/C [25] 2.97% | viability, T/C [26] 1.79% | viability, T/C [27] 1.84% | viability, T/C [28] 1.94% | viability, T/C (second compound 10 µM, first compound 0.00316 µM) 3.49% | viability, T/C (second compound 10 µM, first compound 0.01 µM) 3.33% | viability, T/C [31] 1.42% | viability, T/C [32] 1.13% | viability, T/C [33] 3.58% | viability, T/C [34] 1.55%
0.194 µM: IC50 (second compound 0.0316 µM)
